Experimental data reported in the supplement of paper PMC13380429.

What was measured:
Settings in all cases: 72 h
Caco-2 [1] = test: drug sensitivity score (DSS) for viability; higher = more toxic; extreme values may be limits of the assay
HepG2 [2] = test: as above
Calu-3 [3] = test: as above
Vero E6 [4] = test: as above
U2OS [5] = test: as above
Caco-2 [6] = test: cell viability relative to DMSO; higher = less toxic
HepG2 [7] = test: as above
Calu-3 [8] = test: as above
Vero E6 [9] = test: as above
U2OS [10] = test: as above
Caco-2 [11] = test: relative viability EC50 (midpoint between 100% and the lowest measured viability); higher = less toxic
HepG2 [12] = test: as above
Calu-3 [13] = test: as above
Vero E6 [14] = test: as above
U2OS [15] = test: as above

Compound	drug sensitivity score (Caco-2 [1])	drug sensitivity score (HepG2 [2])	drug sensitivity score (Calu-3 [3])	drug sensitivity score (Vero E6 [4])	drug sensitivity score (U2OS [5])	cell viability (Caco-2 [6]; 1 nM) [%]	cell viability (Caco-2 [6]; 10 nM) [%]	cell viability (Caco-2 [6]; 100 nM) [%]	cell viability (Caco-2 [6]; 1000 nM) [%]	cell viability (Caco-2 [6]; 10000 nM) [%]	cell viability (HepG2 [7]; 1 nM) [%]	cell viability (HepG2 [7]; 10 nM) [%]	cell viability (HepG2 [7]; 100 nM) [%]	cell viability (HepG2 [7]; 1000 nM) [%]	cell viability (HepG2 [7]; 10000 nM) [%]	cell viability (Calu-3 [8]; 1 nM) [%]	cell viability (Calu-3 [8]; 10 nM) [%]	cell viability (Calu-3 [8]; 100 nM) [%]	cell viability (Calu-3 [8]; 1000 nM) [%]	cell viability (Calu-3 [8]; 10000 nM) [%]	cell viability (Vero E6 [9]; 1 nM) [%]	cell viability (Vero E6 [9]; 10 nM) [%]	cell viability (Vero E6 [9]; 100 nM) [%]	cell viability (Vero E6 [9]; 1000 nM) [%]	cell viability (Vero E6 [9]; 10000 nM) [%]	cell viability (U2OS [10]; 1 nM) [%]	cell viability (U2OS [10]; 10 nM) [%]	cell viability (U2OS [10]; 100 nM) [%]	cell viability (U2OS [10]; 1000 nM) [%]	cell viability (U2OS [10]; 10000 nM) [%]	relative viability EC50 (Caco-2 [11]) [µM]	relative viability EC50 (HepG2 [12]) [µM]	relative viability EC50 (Calu-3 [13]) [µM]	relative viability EC50 (Vero E6 [14]) [µM]	relative viability EC50 (U2OS [15]) [µM]
CCC(COC(=O)c1cc(OC)c(OC)c(OC)c1)(c1ccccc1)N(C)C (stereo not given) [trimebutine]	0	0	0	0	0	94.5	93.1	95.4	91.3	88.4	99.8	104	103	96.7	96.9	97.5	104	100	95.6	100	98.2	102	98.4	100	98.2	94.8	101	102	97.2	92.6	> 10	> 10	> 10	> 10	> 10
Cc1c(C)c2c(c(C)c1O)CCC(C)(COc1ccc(CC3SC(=O)NC3=O)cc1)O2 (stereo not given) [troglitazone]	0	0	0	0	0	89	116	106	93.4	106	87.7	103	104	90.6	98.5	112	98.2	110	98.4	108	101	92.2	101	95.9	101	95.2	100	95	101	101	> 10	> 10	> 10	> 10	> 10
COc1cc2c3cc1Oc1cc(ccc1O)C[C@@H]1c4c(cc(OC)c(O)c4Oc4ccc(cc4)C[C@@H]3N(C)CC2)CC[N+]1(C)C [tubocurarine]	0	0	0	0	0	93.5	115	102	108	111	99.5	94.5	94.6	94.6	97.6	107	102	103	102	91.3	108	88.9	107	98.4	118	93.5	97.2	98.4	99.9	106	> 10	> 10	> 10	> 10	> 10
